Reference: patent publication US20080234262A1 (Wyeth, priority 2007, published 2008)

Tests used:
[1] = biological target: PI3K (Homo sapiens, UniProt P42336); assay: Fluorescence polarization assay for PI3K; format: biochemical; conditions: PI3Kα; read-out: PI3Kα IC50;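 note: PI3K kinase reaction on PIP2 with ATP, 30-60 min, product sensed by GST-GRP with red probe in fluorescence polarization (mP), controls without enzyme and at zero time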
[2] = tested on: prostate line LNCap; assay: In vitro cell culture growth assay (MTS), LNCap; format: cell-based, human; conditions: Homo sapiens, 72 h, LNCap cells, three days after drug treatment
[3] = tested on: breast line MDA468; assay: In vitro cell culture growth assay (MTS), MDA468; format: cell-based, human; conditions: Homo sapiens, 72 h, MDA468 cells, three days after drug treatment
How it was run: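 MDA468 or LNCap cells received inhibitors one day after plating and were grown for three days. Viable cell density read by MTS conversion, absorbance 490 nm, expressed as percent of control growth versus vehicle-treated cells on the same plate.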

Sequence of PI3K (P42336 whole entry): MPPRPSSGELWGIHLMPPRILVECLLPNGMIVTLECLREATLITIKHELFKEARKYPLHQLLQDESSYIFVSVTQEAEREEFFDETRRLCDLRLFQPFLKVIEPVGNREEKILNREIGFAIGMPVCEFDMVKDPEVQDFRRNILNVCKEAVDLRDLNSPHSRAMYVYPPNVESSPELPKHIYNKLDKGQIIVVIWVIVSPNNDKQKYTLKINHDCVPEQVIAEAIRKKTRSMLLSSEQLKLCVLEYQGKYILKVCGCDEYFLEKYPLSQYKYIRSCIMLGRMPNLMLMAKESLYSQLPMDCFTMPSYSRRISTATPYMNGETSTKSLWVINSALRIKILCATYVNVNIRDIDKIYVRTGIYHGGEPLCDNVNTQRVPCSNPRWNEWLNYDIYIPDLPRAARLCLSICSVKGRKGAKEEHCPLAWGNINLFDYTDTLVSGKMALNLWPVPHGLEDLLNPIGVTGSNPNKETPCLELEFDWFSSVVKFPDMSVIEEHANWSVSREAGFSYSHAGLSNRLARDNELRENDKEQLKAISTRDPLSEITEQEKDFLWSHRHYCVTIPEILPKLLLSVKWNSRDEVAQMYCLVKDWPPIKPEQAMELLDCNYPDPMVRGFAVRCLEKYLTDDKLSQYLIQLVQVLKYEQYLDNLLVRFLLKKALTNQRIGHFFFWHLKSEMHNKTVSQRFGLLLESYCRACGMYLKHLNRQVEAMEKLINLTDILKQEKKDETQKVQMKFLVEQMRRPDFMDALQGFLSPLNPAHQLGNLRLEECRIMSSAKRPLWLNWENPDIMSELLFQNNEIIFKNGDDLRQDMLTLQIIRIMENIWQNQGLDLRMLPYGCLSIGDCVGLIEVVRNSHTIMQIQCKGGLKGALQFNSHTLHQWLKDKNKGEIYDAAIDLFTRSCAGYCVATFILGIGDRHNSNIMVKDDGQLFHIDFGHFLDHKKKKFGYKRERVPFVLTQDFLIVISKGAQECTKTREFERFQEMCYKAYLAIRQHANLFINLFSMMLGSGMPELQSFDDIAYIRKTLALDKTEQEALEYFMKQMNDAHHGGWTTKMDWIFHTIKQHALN
Sequence of PI3K (P27986 whole entry partner): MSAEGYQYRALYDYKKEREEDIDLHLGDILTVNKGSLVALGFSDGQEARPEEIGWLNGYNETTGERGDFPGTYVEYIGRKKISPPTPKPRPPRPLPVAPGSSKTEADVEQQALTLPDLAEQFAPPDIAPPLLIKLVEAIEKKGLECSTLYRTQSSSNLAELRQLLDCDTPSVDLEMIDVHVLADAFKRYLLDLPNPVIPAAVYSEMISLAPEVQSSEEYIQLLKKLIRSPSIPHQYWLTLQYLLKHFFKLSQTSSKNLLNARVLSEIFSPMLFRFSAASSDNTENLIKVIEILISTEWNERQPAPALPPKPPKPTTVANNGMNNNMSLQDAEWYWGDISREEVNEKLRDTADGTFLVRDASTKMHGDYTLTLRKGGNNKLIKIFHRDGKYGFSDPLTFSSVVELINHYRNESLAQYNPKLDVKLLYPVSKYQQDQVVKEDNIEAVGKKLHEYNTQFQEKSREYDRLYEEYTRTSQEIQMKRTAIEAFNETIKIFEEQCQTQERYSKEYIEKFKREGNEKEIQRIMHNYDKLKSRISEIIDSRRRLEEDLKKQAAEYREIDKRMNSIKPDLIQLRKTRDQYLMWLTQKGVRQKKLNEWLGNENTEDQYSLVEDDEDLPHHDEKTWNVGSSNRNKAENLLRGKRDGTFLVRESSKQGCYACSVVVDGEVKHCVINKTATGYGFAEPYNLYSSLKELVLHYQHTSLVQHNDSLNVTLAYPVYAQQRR

IC50 [1]	IC50 ([2]; LNCaP)	SMILES	IC50 [3]	IC50 [2]
32 nM	200 nM	O=C(Nc1ccc(-c2nc(N3CCOCC3)c3cnn(C4CCN(C(=O)c5cccnc5)CC4)c3n2)cc1)Nc1cccnc1 [Compound 547, 1-(4-{4-morpholin-4-yl-1-[1-(pyridin-3-ylcarbonyl)piperidin-4-yl]-1H-pyrazolo[3,4-d]pyrimidin-6-yl}phenyl)-3-pyridin-3-ylurea]	27 nM	–
211 nM	1000 nM	CNC(=O)Nc1ccc(-c2nc(N3CCOCC3)c3cnn(C4CCN(C)CC4)c3n2)cc1 [Compound 401, 1-methyl-3-{4-[1-(1-methylpiperidin-4-yl)-4-morpholin-4-yl-1H-pyrazolo[3,4-d]pyrimidin-6-yl]phenyl}urea]	3800 nM	–
2660 nM	800 nM	NC(=O)CN1CCC(n2ncc3c(N4CCOCC4)nc(-c4ccc5[nH]ccc5c4)nc32)CC1 [Compound 245, 2-{4-[6-(1H-indol-5-yl)-4-morpholin-4-yl-1H-pyrazolo[3,4-d]pyrimidin-1-yl]piperidin-1-yl}acetamide]	2800 nM	–
6520 nM	5000 nM	CC(=O)Nc1ccc(-c2nc(N3CCOCC3)c3cnn(CCN4CCCCC4)c3n2)cc1 [Compound 127]	18000 nM	–
163 nM	500 nM	O=C(NCCO)Nc1ccc(-c2nc(N3CCOCC3)c3cnn(C4CCN(Cc5cccnc5)CC4)c3n2)cc1 [Example 316, 1-(2-hydroxyethyl)-3-(4-{4-morpholin-4-yl-1-[1-(pyridin-3-ylmethyl)piperidin-4-yl]-1H-pyrazolo[3,4-d]pyrimidin-6-yl}phenyl)urea]	600 nM	–
306 nM	620 nM	CCNC(=O)Nc1ccc(-c2nc(N3CCOCC3)c3cnn(C4CCNCC4)c3n2)cc1 [Compound 773]	390 nM	–
209 nM	200 nM	CNC(=O)Nc1ccc(-c2nc(N3CCOCC3)c3cnn(C4CCN(C(=O)N(C)C)CC4)c3n2)cc1 [Example 473, N,N-dimethyl-4-(6-{4-[(methylcarbamoyl)amino]phenyl}-4-morpholin-4-yl-1H-pyrazolo[3,4-d]pyrimidin-1-yl)piperidine-1-carboxamide]	500 nM	–
384 nM	4800 nM	CNc1ccc(-c2nc(N3CCOCC3)c3cnn(-c4ccccc4)c3n2)cc1 [Compound 128]	60000 nM	–
74 nM	< 27 nM	CNC(=O)Nc1ccc(-c2nc(N3CCOCC3)c3cnn(C4CCC5(CC4)OCCO5)c3n2)cc1 [Compound 566, 1-{4-[1-(1,4-dioxaspiro[4.5]dec-8-yl)-4-morpholin-4-yl-1H-pyrazolo[3,4-d]pyrimidin-6-yl]phenyl}-3-methylurea]	85 nM	–
453 nM	0.8 nM	CCOC(=O)N1CCC(n2ncc3c(N4CCOC[C@H]4C)nc(-c4ccc(NC(=O)Nc5cccnc5)cc4)nc32)CC1 [Compound 892, ethyl 4-(4-[(3R)-3-methylmorpholin-4-yl]-6-{4-[(pyridin-3-ylcarbamoyl)amino]phenyl}-1H-pyrazolo[3,4-d]pyrimidin-1-yl)piperidine-1-carboxylate]	70 nM	–
108 nM	27 nM	CNC(=O)Nc1ccc(-c2nc(N3CCOCC3)c3cnn(C4CCN(C(=O)c5ccc(F)cc5)CC4)c3n2)cc1 [Example 361, 1-(4-{1-[1-(4-fluorobenzoyl)piperidin-4-yl]-4-morpholin-4-yl-1H-pyrazolo[3,4-d]pyrimidin-6-yl}phenyl)-3-methylurea]	100 nM	–
294 nM	400 nM	CNC(=O)Nc1ccc(-c2nc(N3CCOCC3)c3cnn([C@@H]4CCCN(C(=O)OC(C)(C)C)C4)c3n2)cc1 [Compound 874, tert-butyl (3R)-3-(6-{4-[(methylcarbamoyl)amino]phenyl}-4-morpholin-4-yl-1H-pyrazolo[3,4-d]pyrimidin-1-yl)piperidine-1-carboxylate]	1100 nM	–
1980 nM	930 nM	C=CC(=O)N1CCC(n2ncc3c(N4CCOCC4)nc(-c4ccc(NC(=O)OC)cc4)nc32)CC1 [Compound 458, methyl {4-[1-(1-acryloylpiperidin-4-yl)-4-morpholin-4-yl-1H-pyrazolo[3,4-d]pyrimidin-6-yl]phenyl}carbamate]	1200 nM	–
580 nM	3900 nM	CN(C)CCNC(=O)c1ccc(-c2nc(N3CCOCC3)c3cnn(-c4ccccc4)c3n2)cc1 [Compound 103]	5000 nM	–
40 nM	240 nM	Oc1cccc(-c2nc(N3CCOCC3)c3cnn(CC(F)(F)F)c3n2)c1 [Compound 728, 3-[4-morpholin-4-yl-1-(2,2,2-trifluoroethyl)-1H-pyrazolo[3,4-d]pyrimidin-6-yl]phenol]	745 nM	–
6720 nM	760 nM	CCOC(=O)Nc1ccc(-c2nc(N3CCOCC3)c3cnn(C4CCN(C(=O)OC)CC4)c3n2)cc1 [Compound 900, methyl 4-(6-{4-[(ethoxycarbonyl)amino]phenyl}-4-morpholin-4-yl-1H-pyrazolo[3,4-d]pyrimidin-1-yl)piperidine-1-carboxylate]	> 60000 nM	–
153 nM	110 nM	CNC(=O)Nc1ccc(-c2nc(N3CCOCC3)c3cnn(C4CCN(Cc5cncc(F)c5)CC4)c3n2)cc1 [Example 392, 1-[4-(1-{1-[(5-fluoropyridin-3-yl)methyl]piperidin-4-yl}-4-morpholin-4-yl-1H-pyrazolo[3,4-d]pyrimidin-6-yl)phenyl]-3-methylurea]	600 nM	–
14 nM	2000 nM	NCCNC(=O)Nc1ccc(-c2nc(N3CCOCC3)c3cnn(C4CCN(Cc5ccccc5)CC4)c3n2)cc1 [Compound 512, 1-(2-aminoethyl)-3-{4-[1-(1-benzylpiperidin-4-yl)-4-morpholin-4-yl-1H-pyrazolo[3,4-d]pyrimidin-6-yl]phenyl}urea]	2700 nM	–
1170 nM	7200 nM	O=C(Nc1ccc(-c2nc(N3CCOCC3)c3cn[nH]c3n2)cc1)c1cccnc1 [Compound 278, N-[4-(4-morpholin-4-yl-1H-pyrazolo[3,4-d]pyrimidin-6-yl)phenyl]nicotinamide]	60000 nM	–
25 nM	180 nM	CCn1nc(C#CCN(C)C)c2c(N3CCOCC3)nc(-c3ccc(NC(=O)NC)cc3)nc21 [Compound 955, 1-(4-{3-[3-(dimethylamino)prop-1-yn-1-yl]-1-ethyl-4-morpholin-4-yl-1Hpyrazolo[3,4-d]pyrimidin-6-yl}phenyl)-3-methylurea]	500 nM	–
81 nM	58 nM	COC(=O)N1CCC(n2ncc3c(N4CCOC(C)C4)nc(-c4ccc(NC(=O)Nc5cccnc5)cc4)nc32)CC1 (stereo not drawn) [Compound 846, methyl 4-[4-(2-methylmorpholin-4-yl)-6-{4-[(pyridin-3-ylcarbamoyl)amino]phenyl}-1H-pyrazolo[3,4-d]pyrimidin-1-yl]piperidine-1-carboxylate]	500 nM	–
43 nM	27 nM	CNC(=O)Nc1ccc(-c2nc(N3CCOCC3)c3cnn(C4CCN(C(=O)c5ccc(C)cc5)CC4)c3n2)cc1 [Example 367, 1-methyl-3-(4-{1-[1-(4-methylbenzoyl)piperidin-4-yl]-4-morpholin-4-yl-1H-pyrazolo[3,4-d]pyrimidin-6-yl}phenyl)urea]	100 nM	–
480 nM	1000 nM	CN(C)CC=CC(=O)N1CCC(n2ncc3c(N4CCOCC4)nc(-c4ccc5[nH]ccc5c4)nc32)CC1 [Compound 487, 4-{4-[6-(1H-indol-5-yl)-4-morpholin-4-yl-1H-pyrazolo[3,4-d]pyrimidin-1-yl]piperidin-1-yl}-N,N-dimethyl-4-oxobut-2-en-1-amine]	2000 nM	–
42 nM	100 nM	CNC(=O)Nc1ccc(-c2nc(N3CCOCC3)c3cnn(C4CCN(Cc5cccc(Cl)c5)CC4)c3n2)cc1 [Example 395, 1-(4-{1-[1-(3-chlorobenzyl)piperidin-4-yl]-4-morpholin-4-yl-1H-pyrazolo[3,4-d]pyrimidin-6-yl}phenyl)-3-methylurea]	500 nM	–
87 nM	50 nM	CCSC(=O)N1CCC(n2ncc3c(N4CCOCC4)nc(-c4ccc(NC(=O)NC)cc4)nc32)CC1 [Compound 762, S-ethyl 4-(6-{4-[(methylcarbamoyl)amino]phenyl}-4-morpholin-4-yl-1H-pyrazolo[3,4-d]pyrimidin-1-yl)piperidine-1-carbothioate]	170 nM	–
24 nM	95 nM	CCCOC(=O)N1CCC(n2ncc3c(N4CCOCC4)nc(-c4ccc(NC(=O)Nc5ccccc5)cc4)nc32)CC1 [Compound 849, propyl 4-(4-morpholin-4-yl-6-{4-[(phenylcarbamoyl)amino]phenyl}-1H-pyrazolo[3,4-d]pyrimidin-1-yl)piperidine-1-carboxylate]	300 nM	–
179 nM	3000 nM	NC(=O)Nc1ccc(-c2nc(N3CCOCC3)c3cnn(C4CCN(C(=O)c5cccnc5)CC4)c3n2)cc1 [Example 301, 1-(4-{4-morpholin-4-yl-1-[1-(pyridin-3-ylcarbonyl)piperidin-4-yl]-1H-pyrazolo[3,4-d]pyrimidin-6-yl}phenyl)urea]	1800 nM	–
2230 nM	1300 nM	COC(=O)Nc1ccc(-c2nc(N3CCOCC3)c3cnn(C4CCN(C(=O)C(C)C)CC4)c3n2)cc1 [Compound 810, methyl {4-[1-(1-isobutyrylpiperidin-4-yl)-4-morpholin-4-yl-1H-pyrazolo[3,4-d]pyrimidin-6-yl]phenyl}carbamate]	3000 nM	–

SMILES	IC50 [1]	IC50 ([2]; LNCaP)	IC50 [3]	IC50 [2]
c1cc2cc(-c3nc(N4CCOCC4)c4cnn(C5CCSCC5)c4n3)ccc2[nH]1 [Compound 171]	552 nM	–	2900 nM	730 nM
